Reference: ChEMBL document CHEMBL5528017, “Design and synthesis of dual BRD4/Src inhibitors for treatment of triple-negative breast cancer” (Eur J Med Chem, 2024)
pIC50: −log10 of the molar value. Activity calls are given as the source filed them. The rule behind the calls is not given here.

Key:
[1] = system: MDA-MB-231; experiment: cells; details: Homo sapiens, MDA-MB-231, 72 h
Description: Antiproliferative activity against human MDA-MB-231 cells assessed as inhibition of cell viability incubated for 72 hrs by CCK8 assay

[2] = target: Bromodomain-containing protein 4 (Homo sapiens, UniProt O60885); experiment: Inhibition of His6-tagged recombinant BRD4 BD1 domain (44 to 168 residues) (unknown origin) expressed in Escherichia coli BL21(DE3) incubated for 0.5 hrs by FITC-labeled JQ1 based competitive fluorescence polarization assay
[3] = system: MDA-MB-231; experiment: Induction of cell cycle arrest in human MDA-MB-231 cells assessed as proportion of cells at G1 phase at 0.1 uM incubated for 24 hrs by propidium iodide staining based flow cytometry (reference value: 59.5%); type: functional
[4] = system: MDA-MB-231; experiment: Induction of cell cycle arrest in human MDA-MB-231 cells assessed as proportion of cells at S phase at 0.1 uM incubated for 24 hrs by propidium iodide staining based flow cytometry (reference value: 28.2%); type: functional
[5] = system: MDA-MB-231; experiment: Induction of cell cycle arrest in human MDA-MB-231 cells assessed as proportion of cells at G2 phase at 0.1 uM incubated for 24 hrs by propidium iodide staining based flow cytometry (reference value: 11.6%); type: functional
[6] = system: MDA-MB-231; experiment: Induction of cell cycle arrest in human MDA-MB-231 cells assessed as downregulation of cyclin B1 expression at 0.1 uM incubated for 24 hrs by western blot analysis; type: functional, cell-based
[7] = system: MDA-MB-231; experiment: Induction of cell cycle arrest in human MDA-MB-231 cells assessed as increase in p21 expression at 0.1 uM incubated for 24 hrs by western blot analysis; type: functional, cell-based
[8] = system: MDA-MB-231; experiment: Induction of cell cycle arrest in human MDA-MB-231 cells assessed as […] in cyclin D1 expression at 0.1 uM incubated for 24 hrs by western blot analysis; type: functional, cell-based
[9] = system: MDA-MB-231; experiment: Induction of apoptosis in human MDA-MB-231 cells assessed as proportion of viable cells at 0.5 uM incubated for 36 hrs by AnnexinV-FITC/PI staining based flow cytometry (reference value: 93.6%); type: functional
[10] = system: MDA-MB-231; experiment: Induction of apoptosis in human MDA-MB-231 cells assessed as proportion of early apoptotic cells at 0.5 uM incubated for 36 hrs by AnnexinV-FITC/PI staining based flow cytometry (reference value: 5.05%); type: functional
[11] = system: MDA-MB-231; experiment: Induction of apoptosis in human MDA-MB-231 cells assessed as proportion of late apoptotic cells at 0.5 uM incubated for 36 hrs by AnnexinV-FITC/PI staining based flow cytometry (reference value: […]%); type: functional
[12] = system: MDA-MB-231; experiment: Induction of apoptosis in human MDA-MB-231 cells assessed as proportion of necrotic cells at 0.5 uM incubated for 36 hrs by AnnexinV-FITC/PI staining based flow cytometry (reference value: 0%); type: functional
[13] = system: MDA-MB-231; experiment: Inhibition of cell migration in human MDA-MB-231 cells at 0.05 uM incubated for 12 hrs by wound healing assay; type: functional, cell-based
[14] = system: MDA-MB-231; experiment: Inhibition of cell invasion in human MDA-MB-231 cells assessed as decrease in number of invading cells at 0.1 uM incubated for 16 hrs by matrigel coated transwell assay; type: functional, cell-based
[15] = system: MDA-MB-231; experiment: Antitumor activity against human MDA-MB-231 cells xenografted in NOD-SCID mouse assessed as inhibition of tumor growth at 30 mg/kg, ip administered 5 days per week for 27 days; type: functional; details: time 27 day
[16] = system: MCF7; experiment: Antiproliferative activity against human MCF7 cells assessed as inhibition of cell viability incubated for 3 to 4 days by CCK8 assay; type: functional, cell-based; details: time 3-4 day
[17] = system: A549; experiment: Antiproliferative activity against human A549 cells assessed as inhibition of cell viability incubated for 3 to 4 days by CCK8 assay; type: functional, cell-based; details: time 3-4 day
[18] = system: CWR22R; experiment: Antiproliferative activity against human 22Rv1 cells assessed as inhibition of cell viability incubated for 3 to 4 days by CCK8 assay; type: functional, cell-based; details: time 3-4 day
[19] = system: MDA-MB-231; experiment: Induction of cell cycle arrest in human MDA-MB-231 cells assessed as decrease in cyclin D1 expression at 0.1 uM incubated for 24 hrs by western blot analysis; type: functional, cell-based
[20] = system: MDA-MB-231; experiment: Antitumor activity against human MDA-MB-231 cells xenografted in NOD-SCID mouse assessed as inhibition of tumor growth at 30 mg/kg, po administered 5 days per week for 27 days; type: functional; details: MDA-MB-231, 648 h, time 27 day, read-out: TGI

## Cc1nc(Nc2ncc(C(=O)Nc3c(C)cccc3Cl)s2)cc(N2CCN(C(=O)CCCCCCCNC(=O)C[C@@H]3N=C(c4ccc(Cl)cc4)c4c(sc(C)c4C)-n4c(C)nnc43)CC2)n1
[1]
  pIC50: 6.12

## Cc1nc(Nc2ncc(C(=O)Nc3c(C)cccc3Cl)s2)cc(N2CCN(CCOC(=O)[C@H](CC(=O)OC(C)(C)C)NC(=O)C[C@@H]3N=C(c4ccc(Cl)cc4)c4c(sc(C)c4C)-n4c(C)nnc43)CC2)n1
[1]
  pIC50: 6.91

## Cc1nc(Nc2ncc(C(=O)Nc3c(C)cccc3Cl)s2)cc(N2CCN(CCOC(=O)C[C@@H]3N=C(c4ccc(Cl)cc4)c4c(sc(C)c4C)-n4c(C)nnc43)CC2)n1
[1]
  pIC50: 7.28

## Cc1nc(Nc2ncc(C(=O)Nc3c(C)cccc3Cl)s2)cc(N2CCN(CCOC(=O)[C@H](Cc3ccccc3)NC(=O)C[C@@H]3N=C(c4ccc(Cl)cc4)c4c(sc(C)c4C)-n4c(C)nnc43)CC2)n1
[1]
  pIC50: 6.71

## Cc1nc(Nc2ncc(C(=O)Nc3c(C)cccc3Cl)s2)cc(N2CCN(C(=O)[C@@H]3CCCCN3C(=O)C[C@@H]3N=C(c4ccc(Cl)cc4)c4c(sc(C)c4C)-n4c(C)nnc43)CC2)n1
[2]
  pIC50: < 6.00
[1]
  pIC50: 5.30

## Cc1nc(Nc2ncc(C(=O)Nc3c(C)cccc3Cl)s2)cc(N2CCN(CCOC(=O)CCCCCNC(=O)C[C@@H]3N=C(c4ccc(Cl)cc4)c4c(sc(C)c4C)-n4c(C)nnc43)CC2)n1
[1]
  pIC50: 5.97

## Cc1nc(Nc2ncc(C(=O)Nc3c(C)cccc3Cl)s2)cc(N2CCN(CCOC(=O)CCOCCOCCOCCNC(=O)C[C@@H]3N=C(c4ccc(Cl)cc4)c4c(sc(C)c4C)-n4c(C)nnc43)CC2)n1
[1]
  pIC50: 6.78

## Cc1nc(Nc2ncc(C(=O)Nc3c(C)cccc3Cl)s2)cc(N2CCN(C(=O)C[C@@H]3N=Cc4c(sc(C)c4C)-n4c(C)nnc43)CC2)n1
[1]
  pIC50: 6.01

## Cc1nc(Nc2ncc(C(=O)Nc3c(C)cccc3Cl)s2)cc(N2CCN(CCOC(=O)[C@@H]3CCCN3C(=O)C[C@@H]3N=C(c4ccc(Cl)cc4)c4c(sc(C)c4C)-n4c(C)nnc43)CC2)n1
[1]
  pIC50: 6.87

## Cc1nc(Nc2ncc(C(=O)Nc3c(C)cccc3Cl)s2)cc(N2CCN(CCOC(=O)[C@@H]3CCCCN3C(=O)C[C@@H]3N=C(c4ccc(Cl)cc4)c4c(sc(C)c4C)-n4c(C)nnc43)CC2)n1
[2]
  pIC50: < 6.00
[1]
  pIC50: 6.62

## CC[C@H](C)[C@H](NC(=O)C[C@@H]1N=C(c2ccc(Cl)cc2)c2c(sc(C)c2C)-n2c(C)nnc21)C(=O)OCCN1CCN(c2cc(Nc3ncc(C(=O)Nc4c(C)cccc4Cl)s3)nc(C)n2)CC1
[2]
  pIC50: < 6.00
[1]
  pIC50: 6.47

## Cc1nc(Nc2ncc(C(=O)Nc3c(C)cccc3Cl)s2)cc(N2CCN(CCOC(=O)[C@H](Cc3c[nH]c4ccccc34)NC(=O)C[C@@H]3N=C(c4ccc(Cl)cc4)c4c(sc(C)c4C)-n4c(C)nnc43)CC2)n1
[1]
  pIC50: 7.02

## Cc1nc(Nc2ncc(C(=O)Nc3c(C)cccc3Cl)s2)cc(N2CCN(CCOC(=O)CNC(=O)C[C@@H]3N=C(c4ccc(Cl)cc4)c4c(sc(C)c4C)-n4c(C)nnc43)CC2)n1
[1]
  pIC50: 7.66

## Cc1sc2c(c1C)C(c1ccc(Cl)cc1)=N[C@@H](CC(=O)OC(C)(C)C)c1nnc(C)n1-2
[3]
  Activity: 73.3%
[4]
  Activity: 17.5%
[5]
  Activity: 8.53%
[6]
  Activity: Active
[7]
  Activity: Active
[8]
  Activity: Active
[9]
  Activity: 83.8%
[10]
  Activity: 13.3%
[11]
  Activity: 2.9%
[12]
  Activity: 0%
[13]
  inhibition: Active
[14]
  inhibition: inactive
[15]
  TGI: 63.6%
[1]
  pIC50: 6.05

## Cc1nc(Nc2ncc(C(=O)Nc3c(C)cccc3Cl)s2)cc(N2CCN(CCOC(=O)[C@H](CC(C)C)NC(=O)C[C@@H]3N=C(c4ccc(Cl)cc4)c4c(sc(C)c4C)-n4c(C)nnc43)CC2)n1
[1]
  pIC50: 6.62

## Cc1nc(Nc2ncc(C(=O)Nc3c(C)cccc3Cl)s2)cc(N2CCN(C(=O)CCCCCNC(=O)C[C@@H]3N=C(c4ccc(Cl)cc4)c4c(sc(C)c4C)-n4c(C)nnc43)CC2)n1
[1]
  pIC50: 6.52

## Cc1nc(Nc2ncc(C(=O)Nc3c(C)cccc3Cl)s2)cc(N2CCN(C(=O)CCCNC(=O)C[C@@H]3N=C(c4ccc(Cl)cc4)c4c(sc(C)c4C)-n4c(C)nnc43)CC2)n1
[1]
  pIC50: 5.88

## Cc1nc(Nc2ncc(C(=O)Nc3c(C)cccc3Cl)s2)cc(N2CCN(CCO)CC2)n1 [DASATINIB ANHYDROUS]
[16]
  Activity: Active
[17]
  Activity: Active
[18]
  Activity: Active
[3]
  Activity: 74.5%
[4]
  Activity: 15.8%
[5]
  Activity: 7.75%
[6]
  Activity: Active
[7]
  Activity: Active
[19]
  Activity: Active
[9]
  Activity: 80.9%
[10]
  Activity: 14.6%
[11]
  Activity: 4.45%
[12]
  Activity: 0.002%
[13]
  inhibition: Active
[14]
  inhibition: Active
[20]
  inhibition in vivo at 30 mg/kg: 44.7%
[1]
  pIC50: 6.80

## CSCC[C@H](NC(=O)C[C@@H]1N=C(c2ccc(Cl)cc2)c2c(sc(C)c2C)-n2c(C)nnc21)C(=O)OCCN1CCN(c2cc(Nc3ncc(C(=O)Nc4c(C)cccc4Cl)s3)nc(C)n2)CC1
[1]
  pIC50: 7.24

## Cc1nc(Nc2ncc(C(=O)Nc3c(C)cccc3Cl)s2)cc(N2CCN(CCOC(=O)C(NC(=O)C[C@@H]3N=C(c4ccc(Cl)cc4)c4c(sc(C)c4C)-n4c(C)nnc43)C(C)C)CC2)n1 (some centres not stated)
[1]
  pIC50: 6.76
